The source of these data is publication PMC3995007, “GTP binding controls complex formation by the human ROCO protein MASL1” (The Febs Journal, 2013).

In experiment [1] the target is T1, MASL1 (Homo sapiens, UniProt Q9Y4C4).
T1 construct: gene MFHAS1; overexpressed in HEK293T, clarified lysate; plasmid from Genecopoeia
T1 sequence (Q9Y4C4 2-1052): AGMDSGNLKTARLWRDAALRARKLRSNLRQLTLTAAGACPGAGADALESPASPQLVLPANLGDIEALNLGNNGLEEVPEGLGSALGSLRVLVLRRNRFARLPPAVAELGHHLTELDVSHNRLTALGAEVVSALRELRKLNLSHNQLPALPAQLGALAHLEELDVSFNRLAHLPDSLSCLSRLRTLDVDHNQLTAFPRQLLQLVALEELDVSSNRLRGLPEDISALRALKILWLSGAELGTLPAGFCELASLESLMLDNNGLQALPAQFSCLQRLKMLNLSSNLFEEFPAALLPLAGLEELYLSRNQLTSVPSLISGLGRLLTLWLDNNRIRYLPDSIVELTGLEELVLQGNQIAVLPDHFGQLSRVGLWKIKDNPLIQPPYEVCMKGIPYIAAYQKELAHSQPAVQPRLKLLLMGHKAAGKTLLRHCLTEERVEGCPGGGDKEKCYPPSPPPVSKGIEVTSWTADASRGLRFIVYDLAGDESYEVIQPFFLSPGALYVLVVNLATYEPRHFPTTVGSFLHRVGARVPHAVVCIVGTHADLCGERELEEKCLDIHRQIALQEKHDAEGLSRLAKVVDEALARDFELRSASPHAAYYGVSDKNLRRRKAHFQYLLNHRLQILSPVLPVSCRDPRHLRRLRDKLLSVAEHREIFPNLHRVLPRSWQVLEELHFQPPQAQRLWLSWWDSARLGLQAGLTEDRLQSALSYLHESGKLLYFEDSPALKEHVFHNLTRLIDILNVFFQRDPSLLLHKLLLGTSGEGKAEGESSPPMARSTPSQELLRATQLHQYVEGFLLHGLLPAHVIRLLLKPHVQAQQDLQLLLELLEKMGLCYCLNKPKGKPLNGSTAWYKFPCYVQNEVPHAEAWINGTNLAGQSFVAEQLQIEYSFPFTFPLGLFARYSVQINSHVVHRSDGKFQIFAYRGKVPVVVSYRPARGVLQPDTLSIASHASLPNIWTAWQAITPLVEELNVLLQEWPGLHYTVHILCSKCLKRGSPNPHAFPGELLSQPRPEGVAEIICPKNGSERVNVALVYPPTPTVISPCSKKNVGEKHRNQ
The experiment in a line: size exclusion chromatography of lysate, shift between HMW and LMW complex, dot blot. Format: biochemical. The settings on record: 200 µM GDP in HEK293T lysate and mobile phase, pH 7.5; indirect read-out of binding, K422A used as control.

Experiment [2] concerns the target T1, MASL1. The experiment in a line: pulldown on GTP-sepharose beads, competition with free GTP, immunoblot. The format is binding. The conditions noted are these: clarified HEK293T lysate, 4 °C, 2 h; free GTP 10 mM; immobilised GTP; ROC domain site. Background: A western blot detects proteins with antibodies after separation by electrophoresis.

Each structure is given as a SMILES string.

`Nc1nc2c(ncn2[C@@H]2O[C@H](COP(=O)(O)OP(=O)(O)O)[C@@H](O)[C@H]2O)c(=O)[nH]1` [GDP]: the “size exclusion chromatography of lysate, shift between HMW and LMW complex, dot” value at MASL1 [1] is “GDP shifted the equilibrium between LMW and HMW complex towards the latter”.
For the compound `Nc1nc2c(ncn2[C@@H]2O[C@H](COP(=O)(O)OP(=O)(O)OP(=O)(O)O)[C@@H](O)[C@H]2O)c(=O)[nH]1` [GTP], the “pulldown on GTP-sepharose beads, competition with free GTP, immunoblot” value on MASL1 [2] is given as “Wild type HA-tagged MASL1 was able to bind GTP immobilized on sepharose beads”.
